Where no end group is shown, it is not given here.
Legend:
Format in all cases: cell-based
[1] = tested on: primary fetal rat hippocampal neurons; assay: Growth of hippocampal neurons, label-free real time cell analysis (RTCA); conditions: ABPPk2 4, 20, 100 ng/ml
Protocol: (1) Primary culture of fetal rat hippocampal neurons: after a rat pregnant for 17 days was anesthetized, a fetal rat was taken out under sterile conditions; the brain of the fetal rat was taken out on ice; the hippocampus was carefully taken out under a dissecting microscope; and the blood vessel membranes were removed. 0.125% trypsin/EDTA was digested at 37° C. for 10 min, and the digestion was stopped by adding the DMEM complete medium containing 10% FBS. Cell debris were removed through centrifugal at 1000 rpm for 5 min; the DMEM complete medium was added to resuspend the cells; the cells were gently blown until a single cell suspension was formed; and the cells were inoculated at an appropriate density on a culture plate (dish) pre-coated with polylysine (PLL) and cultured at 37° C., 5% CO2 incubator. After 4 h, the cells were adhered to the wall; the DMEM complete medium was discarded and replaced with neurobasal medium containing different concentrations of ABPPk2 (the concentrations of ABPPk2 were 4 ng/ml, 20 ng/ml and 100 ng/ml); the neurobasal medium containing 10 ng/ml BDNF was used as the positive control group, and neurobasal was used as the negative control group. […]

[2] = tested on: primary cultured SD fetal rat cortical neurons after OGD damage; assay: OGD damage of cortical neurons, ROS content (reactive oxygen detection kit); conditions: OGD 2 h, 24 h reoxygenation; ABPPk2 8, 40, 200 ng/ml; obvious dose-effect relationship
Protocol: The suspension was filtered with a 400-mesh screen, centrifuged at 1000 rpm for 5 min, and blown to form the single cell suspension. DMEM high glucose complete medium (containing 10% fetal bovine serum) was inoculated in a culture dish or culture plate pre-coated with polylysine (PLL) to culture in 5% CO2 incubator with saturated humidity at 37° C. After the cells were cultured for 4 h to adhere to the wall, the cells were cultured with neuron culture medium (neurobasal+2% B27) for 3 d to observe the growth of neurons. The culture medium containing cytarabine (the final concentration of cytarabine was 2.5 μg/ml) was substituted with half quantity to culture for 3d to inhibit the growth of glial cells and miscellaneous cells to obtain purely cultured primary cortical nerve cells. The purity of the cortical neurons was identified by immunocytochemical staining as more than 90%. […]
(6) Effect of ABPPk2 on ROS content of cortical neurons after OGD damage: cortical neurons were inoculated in a 6-well plate at 1×10^6 cells/ml; 2 ml of cell suspension was added to each well; and the cortical neurons were cultured to the 7th day. […] The effect of ABPPk2 on the ROS content of the cortical neurons after OGD damage was detected by a reactive oxygen detection kit.

[3] = tested on: primary cultured SD fetal rat cortical neurons after OGD damage; assay: OGD damage of cortical neurons, Western blot of apoptosis-related proteins
[4] = after OGD damage and treatment with ABPPk2
[5] = total protein, ABPPk2 medium-dose (40 ng/ml) and high-dose (200 ng/ml) groups vs OGD damage group

**Q.** What does the source list for “Cys-Leu-Glu-Ser-Gly-Thr-Ser-Cys-Ile-Pro-Gly-Ala-Gln-His-Asn-Cys-Cys-Ser-Gly-Val-Cys-Val-Pro-Ile-Val-Thr-Ile-Phe-Tyr-Gly-Val-Cys-Tyr (CLESGTSCIPGAQHNCCSGVCVPIVTIFYGVCY; disulfide (positions not given here); not fully specified (bridges); also: three disulfide bonds, pairing not given here) [ABPPk2, 33 amino acid polypeptide isolated from the extract of Achyranthes bidentata Blume, three pairs of disulfide bonds]”?
**A.** growth of hippocampal neurons (cell index, RTCA) [1]: can promote the growth of the hippocampal neurons and the extension of neurites; ROS content [2]: can reduce the ROS content; expression of AIF in mitochondria [3, 4]: significantly up-regulated; expression of AIF in the nucleus [3, 4]: significantly down-regulated; expression of Cyt C in cytoplasma [3, 4]: significantly down-regulated; expression of Cyt C in mitochondria [3, 4]: significantly up-regulated; Bcl-2 expression ([3]; total protein, ABPPk2 high-dose group (200 ng/ml) vs OGD damage group): significantly up-regulated; Bax expression [3, 5]: significantly down-regulated; Cleaved caspase-3 expression [3, 5]: significantly down-regulated

— US20230151065A1, “MULTI-DISULFIDE-BOND LONG-CHAIN PEPTIDE WITH NEURO[…], PHARMACEUTICAL COMPOSITION AND APPLICATION” (priority 2018, published 2023)
